Activity calls are given as the source filed them.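 Rule for the calls: active = compounds giving half or more protection of infected cells from virus-caused growth loss, again on retest; inactive = the rest.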
Test system: CEM cells HIV-1 protection, formazan growth assay
Experiment: NCI AIDS Antiviral Assay
Settings: for IC50: measured here: growth of uninfected CEM cells
Summary of the method: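 Human CEM cells, uninfected and HIV-1-infected, exposed to five drug concentrations; growth measured by soluble formazan assay and scored as percent protection from infection, with protecting compounds retested.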

SMILES	outcome	EC50 [µM]	IC50 [µM]
COc1ccc2nc3ccccc3c(NCCCCCN(C)CCCl)c2c1	inactive		
CC(=O)OI1NC(=O)c2ccccc21		36.3	126
Cn1ccnc1CCc1c(Cl)cccc1Cl		> 851	123
CC1CCCC/C1=N/NS(=O)(=O)c1ccc(N)cc1 (centres undefined)		> 240	> 240
Cc1ccc(-c2c(C#N)c(S)n(NS(=O)(=O)c3ccc(C)cc3)c(=O)c2C#N)cc1		> 200	11.7
O=C(CCCl)NNC1=NCCCN1		> 200	> 200
Cc1nn(C(=O)c2ccncc2)c2c1C(c1ccccc1)SC(N)=N2 (centres undefined)		28.2	> 100
Cc1[nH]c(-c2ccccc2)c(O)c1C(=O)OC12CC3CC(CC(C3)C1)C2		> 200	30.9
COc1ccc(C2(OC)Oc3ccccc3C(=O)C2(O)O)cc1 (centres undefined)		> 200	12.6
Cc1ccc(NC(=O)CC(=O)n2nc(C)c(N=Nc3ccccc3C(=O)O)c2C)cc1		> 427	> 427
CC(=O)NC1=NC(=O)/C(=C/c2ccc3c(c2)OCO3)N1C		> 200	> 200
N#Cc1ccccc1SSc1ccccc1C#N		> 200	11.7
Cc1nc2cc(C(F)(F)F)ccc2[nH]c1=O		> 200	> 200
COC(=O)C1=C(C)NC2=C(C(=O)c3ccccc32)C1c1cn(-c2ccccc2)nc1-c1ccccc1 (centres undefined)		> 200	8.71
CN1C(NN)=NS(=O)(=O)c2ccccc21		> 115	95.5
OC1(c2ccc(Cl)cc2)c2ccccc2C2=Nc3ccccc3CN21 (centres undefined)		> 200	115
COC(=O)C(Cc1ccccc1)NC(=O)CCCNC(=O)OCc1ccccc1 (centres undefined)		> 200	87.1
CC1=C2CCCC2=C/C(=N/Nc2ccc([N+](=O)[O-])cc2[N+](=O)[O-])CC1	inactive		
O=C(O)CN1CCN(CC(=O)N2CCN(C(=O)OCc3ccccc3)CC2)CCN(CC(=O)O)CCN(CC(=O)N2CCN(C(=O)OCc3ccccc3)CC2)CC1		> 200	> 200
COC(=O)c1ccccc1CC1Cc2cccc(C)c2C1=O (centres undefined)		> 200	53.7
O=C(CSc1nnc(Cc2ccccc2)o1)Nc1ccc([N+](=O)[O-])cc1		> 97.7	95.5
CC(C(=O)O)c1cnn(-c2ccccc2)c1-n1cccc1 (centres undefined)	inactive		

SMILES	outcome	EC50 [µM]	IC50 [µM]
O=C(Nc1ccc(S(=O)(=O)c2ccc(NC(=O)c3cc(S(=O)(=O)O)ccc3O)cc2)cc1)c1cc(S(=O)(=O)O)ccc1O (tested in a mixture with another compound)		162	> 200
COC1=CC(=O)[C@]2(C)[C@H](C1=O)C(C)[C@H]2c1ccc(OC)cc1 (some centres undefined)		> 87.1	> 87.1
S=C1Cc2cc3ccccc3nc2-c2ccccc2N1		> 100	> 100
CCOC(=O)CC1c2ccc(O)cc2OC(=O)C1c1ccc(N)cc1 (centres undefined)		> 200	> 200
CCOP(=O)(OCC)/C(C#N)=C/c1cnc(-c2ccccc2)[nH]1		> 200	102
COC(=O)C1=C(C(=O)OC)C2C(C)=CC(C)=CN2C(C(=O)OC)=C1C(=O)OC (centres undefined)		> 200	> 200
CC1(C)C2CCC3(C2)CS(=O)(=O)N2OC231 (centres undefined)		> 219	120
O=C1CCc2cc3c(cc21)C(C(=O)O)CC3 (centres undefined)		> 200	> 200
CC(C)CCCC(C)[C@H]1CCC2C3C/C(=C\C#N)[C@H]4CCCC[C@]4(C)C3CC[C@@]21C (some centres undefined)		> 100	> 100
CCN(CC)CCNc1ccc([N+](=O)[O-])c2nc3ccc(OC)cc3c(N)c12		> 200	0.331
Cn1c(-c2ccccc2)cc(-c2cccs2)c1-c1ccsc1		> 200	182
NC(CCCCNCc1ccccc1)C(=O)O (centres undefined)		> 1050	> 1050
O=C(/C=C/c1ccc(O)cc1)c1cc(O)cc(O)c1		> 200	20.9
CC12NC(=C(C#N)C#N)C(C#N)=C3NC(N)=C(C#N)C(=C31)Oc1ccccc12 (centres undefined)		> 200	5.89
[N-]=[N+]=C(C(=O)OCC#CCOC(=O)C(=[N+]=[N-])S(=O)(=O)c1ccccc1)S(=O)(=O)c1ccccc1		> 200	135
CC1=C[C@H](C[C@]2(C)c3c(c4c(C)cccc4oc3=O)O[C@@H]2C)OC1=O		> 200	26.9
CC(C)(C)OC(=O)NCCNC(=O)CN(CC(=O)O)C1CCCCC1N(CC(=O)O)CC(=O)O (centres undefined)		> 200	170
O=C(NNC(=S)S)c1ccncc1		> 200	95.5
Cc1ccsc1/C=N/Nc1ccc2ccccc2n1		> 200	18.6
CCCCCCCCCCCC1N=C(N)NC(CCCO)=C1C(=O)OC (centres undefined)		> 200	3.47
CN=C(Nc1cccc(C(F)(F)F)c1)SCc1ccc(N=C=S)cc1	inactive		
CCOc1ccc(C2OCCC(C)O2)cc1OC (centres undefined)		> 200	> 200

From PubChem BioAssay AID179 (DTP/NCI, 2004)
